Measurements from patent publication US10927375B1, “Compositions and methods to reduce beta-agonist-mediated tachyphylaxis” (University of South Florida, priority 2018, dated 2021).
“Also recorded” adds a separate entry of the source.

Assays:
[1] = test system: let-7f miRNA expression in HASM cells; experiment: let-7f miRNA expression in cultured HASM cells by quantitative RT-PCR; type: cell-based, human; conditions: for change in let-7f miRNA expression after treatment with the agent: 18 h at 37° C., asthmatic and nonasthmatic HASM cells, ISO 30 μM, forskolin 10 mM, dibutyryl-cAMP 100 mM as printed
ADRB2 mRNA = ADRB2 mRNA in D9 HASM cells by RT-PCR; conditions: 18 h ISO
Protocol: (§1) The immortalized HASM cell line denoted D9 hTERT was developed as described (22), and was grown in the same manner. […] In some experiments, pretreatment with 10 μM N-(2-[p-bromocinnamylamino]ethyl)-5-isoquinoline-sulfonamide (H89) occurred for 1 h prior to the aforementioned treatments.
RT-PCR was performed using a LightCycler 96 system (Roche, Basel, Switzerland) and TaqMan polymerase (Applied Biosystems, Foster City, Calif., USA) as previously described (26, 27). The RT reactions utilized Oligo d(T)16 for ADRB2 and glyceraldehyde-3 phosphate dehydrogenase (control), and the primers included with the TaqMan MicroRNA assay (Applied Biosystems) for the reaction with let-7f and U6 snRNA (control). […] Quantitation of transcripts was made by the 22DCt method (28, 29).

β2AR [2] = conditions: incubating cells with dibutyryl-cAMP and forskolin (ref. 37); cited from earlier work
β2AR [3] = conditions: stably transfected HEK 293 cells greatly overexpressing β2ARs (ref. 40); cited from earlier work
β2AR [4] = biological target: β2AR (Homo sapiens, UniProt P07550); experiment: β2AR protein expression / agonist-promoted down-regulation in HASM cells (Western blot, radioligand binding)
Protocol: as §1
HASM cells in 6-well plates were transfected using Lipofectamine 2000 (Thermo Fisher Scientific, Waltham, Mass., USA) as described in detail elsewhere (22, 23). Cells were in a final volume of 1.0 ml and the indicated constructs along with 10 ml of Lipofectamine 2000 were added to initiate the transfection. The constructs and final concentrations were: cAMP receptor element-binding protein [CREB (in pcDNA3, 4 μg/ml)], siCREB (40 nM of siGenome SmartPool; Dharmacon, Lafayette, Colo., USA), and to inhibit let-7f, a competitive inhibitor (Dharmacon) that binds to let-7f (24, 25) at a final concentration of 40 nM (24, 25). The cells were studied 48 h after transfection. […] Secondary antibody for chemoluminescence (Thermo Fisher Scientific) was at a titer of 1:10,000. ChemiDoc (Bio-Rad, Hercules, Calif., USA) was used to detect bands, which were quantitated using ImageJ (National Institutes of Health, Bethesda, Md., USA).
Radioligand binding. Confluent cells in 10 cm dishes were washed 3 times with cold PBS followed by disruption with a cell scraper in buffer consisting of 5 mM Tris and 2 mM EDTA at 4° C. (pH 7.4). Crude membranes were collected by centrifugation at 30,000 g for 15 min at 4° C., and resuspended in assay buffer consisting of 75 mM Tris, 12 mM MgCl2, and 5 mM EDTA at 25° C. (pH 7.4). […] After incubation for 1.5 h at 25° C., bound radioligands were separated from free radioligands by rapid dilution and vacuum filtration with buffer containing 15 ml of 5 mM Tris and 2 mM EDTA at 25° C. (pH 7.4) over Whatman GF/C filters (GE Healthcare Bio-Sciences, Piscataway, N.J., USA) using a Brandel cell harvester (Brandel, Gaithersberg, Md., USA). Specific binding was divided by the added cell membrane protein and β2AR expression stated as femtomoles per milligram.

Molecule: O=S(=O)(NCCNCC=Cc1ccc(Br)cc1)c1cccc2cnccc12 [H89]
- effect of H89 on ISO-promoted increase in let-7f ([1]; 10 μM H89 pretreatment 1 h, then ISO 18 h, asthmatic and non-asthmatic HASM cells): blocked; also recorded: inhibited
- effect of H89 on forskolin-promoted increase in let-7f ([1]; 10 μM H89 pretreatment 1 h, then forskolin 18 h, asthmatic and non-asthmatic HASM cells): blocked; also recorded: inhibited
- effect of H89 on dibutyryl-cAMP-promoted increase in let-7f ([1]; 10 μM H89 pretreatment, then dibutyryl-cAMP 18 h, HASM cells): blocked

Molecule: CC(C)NCC(O)c1ccc(O)c(O)c1 (centres unmarked) [ISO, isoproterenol]
- change in let-7f miRNA expression after treatment with the agent [1]: increased
- increase in let-7f miRNA expression ([1]; 18 h exposure to ISO (30 μM), both asthmatic and non-asthmatic HASM cells): ~3 fold
- change in ADRB2 mRNA due to ISO exposure (ADRB2 mRNA): not altered; also recorded: not found to be changed

Molecule: CCCC(=O)Nc1ncnc2c1ncn2[C@@H]1O[C@@H]2COP(=O)(O)O[C@H]2[C@H]1OC(=O)CCC [dibutyryl-cAMP]
- change in let-7f miRNA expression after treatment with the agent [1]: increased
- β2AR down-regulation relative to β-agonists (β2AR [2]): nearly the same extent
- degree of β2AR down-regulation compared with that of ISO (β2AR [3]): relatively small degree

B1: let-7f inhibitor: competitive inhibitor (Dharmacon) that binds to let-7f; Cat. No. IH-30048-07, SEQ ID NO: 14 (nucleic acid)
chain: UCAGAGUGAGGUAGUAGAUUGUAUAGUUGUGGGGUAGUGAUUUUACCCUGUUCAGGAGAUAACUAUACAAUCUAUUGCCUUCCCUGA
modifications: commercial inhibitor, chemistry not given here
- attenuation of agonist-promoted β2AR down-regulation (β2AR [4]; let-7f or CREB silenced, chronic agonist): about 50%
- effect on ISO-promoted β2AR down-regulation (β2AR [4]; transfection 40 nM 48 h, then ISO 18 h): attenuates; also recorded: markedly attenuated
